These results are taken from patent US20110136787A1, “DIPHENYL AZEPANE, DIAZEPANE AND OXAZEPANE DERIVATIVES AND USES THEREOF” (priority 2009, published 2011).

SMILES strings stand for the structures.

Assay [1] has as its target T1, Human Serotonin Transporter (hSERT) (Homo sapiens, UniProt P31645).
T1 construct: expressed in transfected cells; host or cells: HEK-293, membrane preparation
As to the kind of experiment: hSERT scintillation proximity assay (SPA), competition with [3H]-Citalopram. It counts as binding. The note with it: pKi, membranes of HEK-293 cells expressing recombinant hSERT, read-out: SERT (converted). The source says:
Screening for Human Serotonin Transporter (hSERT) Antagonists Using a Scintillation Proximity Assay (SPA)
The screening assay of this example was used to determine the affinity of ligands at the hSERT transporter by competition with [^3H]-Citalopram.
Scintillation Proximity Assay (SPA) works by bringing radioligand within close proximity to the bead's scintillant to stimulate light emission. In this assay, the receptor-containing membranes were pre-coupled to the SPA beads and the binding of the appropriate radioligand to the transporter was measured. The light emission was proportional to the amount of bound radioligand. Unbound radioligand produced no signal as a result of distant proximity to scintillant (lack of energy transfer).
HEK-293 cells (Tatsumi et al., Eur. J. Pharmacol. 1997, 30, 249-258) stably expressing recombinant hSERT were maintained with media (DMEM high glucose with 10% FBS, 300 ug/ml G418 and 2 mM L-Glutamine) and incubated at 37° C. with 5% CO2. Cells are released from culture flasks using PBS for 1-2 minutes. The cells were subsequently centrifuged at 1000 g′ s for 5 minutes and resuspended in PBS prior to being used in the membrane preparation.
(§1) Cell membranes were prepared using a membrane preparation buffer of 50 mM TRIS (pH 7.4). Cell membranes were prepared from a single cube (7.5×10^9 cells total). Cells were homogenized using a Polytron (setting medium for a 4 second burst). The homogenate was then centrifuged at 48,000×g for 15 minutes, the supernatant subsequently removed and discarded, and the pellet resuspended with fresh buffer. After a second centrifugation, the pellet was re-homogenized and brought to a final volume determined during the assay. Typically, membrane portions were aliquoted in 3 mg/ml (w:v). and stored at −80° C.
For Scintillation Proximity Assay IC50/Ki determination, 50 mM Tris-HCl and 300 mM NaCl, (pH 7.4) buffers were utilized. Compounds of the invention were diluted from 10 mM to 0.1 nM FAC (10 point curves, whole log/half log dilutions) via a Beckman Biomek 2000 using a serial dilution protocol. The test compounds were then transferred (20 ul/well) and the [^3H]-Citalopram radioligand was added at 50 ul/well. Membrane and beads were prepared to a ratio of 10 ug:0.7 mg, with 0.7 mg PVT-WGA Amersham beads (Cat# RPQ0282V) added per well. 130 ul of the membrane: bead mixture was added to the assay plate. The mixtures were allowed to stand at room temperature for one hour, and were then counted on a Packard TopCount LCS, a generic Scintillation Proximity Assay counting protocol settings (Energy Range: Low, Efficiency Mode: Normal, Region A: 1.50-35.00, Region B: 1.50-256.00, Count Time (min.): 0.40, Background Subtract: none, Half-Life Correction: no, Quench Indicator: tSIS, Platemap blank subtraction: No, Cross talk reduction: Off).
The % inhibition was calculated for each compound tested [(Compound counts per minute (CPM) at maximum concentration-Non-Specific CPM)/Total CPM*100]. The concentration producing 50% inhibition (IC50) was determined using an iterative non-linear curve fitting technique with Activity Base/Xlfit using the following equation:
(§2) where max=total binding, min=non specific binding, x=concentration (M) of the tested compound and n=Hill slope. The inhibition dissociation constant (Ki) of each compound was determined according to the method of Cheng-Prusoff and then converted into negative logarithm (pKi) of the Ki.
In general terms: Scintillation proximity formats need no separation of bound from free tracer.

Assay [2] addresses T2, Human Norepinephrine Transporter (hNET) (Homo sapiens, UniProt P23975).
T2 construct: expressed in transfected cells; host or cells: HEK-293 (Clone: HEK-hNET #2), membrane preparation
Description: hNET scintillation proximity assay (SPA), competition with [3H]-Nisoxetine. It counts as binding. The note with it: pKi, membranes of HEK-293 cells expressing recombinant hNET, read-out: NET (converted). On the procedure:
Screening for compounds active at Human Norepinephrine Transporter (hNET) Using a Scintillation Proximity Assay (SPA)
This assay was used to determine the affinity of ligands for the hNET transporter by competition with [^3H]-Nisoxetine. As in the hSERT assay of the above example, receptor-containing membranes were pre-coupled to the SPA beads and the binding of the appropriate radioligand to the transporter was measured. The light emission was proportional to the amount of bound radioligand, with unbound radioligand producing no signal.
HEK-293 cells (Tatsumi et al., Eur. J. Pharmacol. 1997, 30, 249-258) stably expressing recombinant hNET (Clone: HEK-hNET #2) were maintained with media (DMEM hi glucose with 10% FBS, 300 ug/ml G418 and 2 mM L-Glutamine) and incubated at 37° C. with 5% CO2. Cells were released from culture flasks using PBS for 1-2 minutes. The cells were subsequently centrifuged at 1000 g′ s for 5 minutes and resuspended in PBS prior to being used in the membrane preparation.
as §1, with “3-6” for “3”
^3[H] Nisoxetine radioligand (Amersham Cat. # TRK942 or Perkin Elmer Cat. # NET1084, specific activity: 70-87 Ci/mmol, stock concentration: 1.22e-5 M, final concentration: 8.25e-9 M), and 50 mM Tris-HCl, 300 mM NaCl, (pH 7.4) buffers were used for Scintillation Proximity Assay IC50/Ki determination. Compounds of the invention were diluted from 10 mM to 0.1 nM FAC (10 point curves, whole log/half log dilutions) via a Beckman Biomek 2000 using a serial dilution protocol. The test compounds were then transferred (20 ul/well) and the radioligand was added at 50 ul/well. Membrane and beads were prepared to a ratio of […], with 0.7 mg PVT-WGA Amersham beads (Cat# RPQ0282V) added per well. […] of the membrane: bead mixture was added to the assay plate. The mixtures were allowed to stand at room temperature for one hour, and were then counted on a Packard TopCount LCS, a generic SPA counting protocol settings (Energy Range: Low, Efficiency Mode: Normal, Region A: 1.50-35.00, Region B: 1.50-256.00, Count Time (min.): 0.40, Background Subtract: none, Half-Life Correction: no, Quench Indicator: tSIS, Platemap blank subtraction: No, Cross talk reduction: Off).
The % inhibition was calculated for each compound tested [(Compound CPM at maximum concentration-Non-Specific CPM)/Total CPM*100]. The concentration producing 50% inhibition (IC50) was determined using an iterative non-linear curve fitting technique with Activity Base/Xlfit using the following equation:
as §2

T2 sequence (P23975 whole entry): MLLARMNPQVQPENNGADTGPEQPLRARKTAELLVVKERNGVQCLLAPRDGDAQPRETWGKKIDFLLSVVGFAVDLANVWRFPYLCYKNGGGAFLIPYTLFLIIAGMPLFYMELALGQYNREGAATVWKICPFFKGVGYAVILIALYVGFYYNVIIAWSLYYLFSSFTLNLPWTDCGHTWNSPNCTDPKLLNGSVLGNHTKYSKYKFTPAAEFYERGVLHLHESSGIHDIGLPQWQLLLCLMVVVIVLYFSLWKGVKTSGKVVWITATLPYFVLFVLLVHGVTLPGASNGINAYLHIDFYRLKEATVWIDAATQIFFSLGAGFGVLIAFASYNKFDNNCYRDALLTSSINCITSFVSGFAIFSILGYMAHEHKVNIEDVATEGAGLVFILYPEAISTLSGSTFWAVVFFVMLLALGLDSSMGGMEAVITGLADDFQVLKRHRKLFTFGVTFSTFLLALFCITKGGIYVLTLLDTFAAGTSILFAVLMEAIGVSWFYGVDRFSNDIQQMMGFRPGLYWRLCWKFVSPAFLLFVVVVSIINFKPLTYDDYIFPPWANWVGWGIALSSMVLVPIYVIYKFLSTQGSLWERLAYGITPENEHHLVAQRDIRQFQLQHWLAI
T1 sequence (P31645 whole entry): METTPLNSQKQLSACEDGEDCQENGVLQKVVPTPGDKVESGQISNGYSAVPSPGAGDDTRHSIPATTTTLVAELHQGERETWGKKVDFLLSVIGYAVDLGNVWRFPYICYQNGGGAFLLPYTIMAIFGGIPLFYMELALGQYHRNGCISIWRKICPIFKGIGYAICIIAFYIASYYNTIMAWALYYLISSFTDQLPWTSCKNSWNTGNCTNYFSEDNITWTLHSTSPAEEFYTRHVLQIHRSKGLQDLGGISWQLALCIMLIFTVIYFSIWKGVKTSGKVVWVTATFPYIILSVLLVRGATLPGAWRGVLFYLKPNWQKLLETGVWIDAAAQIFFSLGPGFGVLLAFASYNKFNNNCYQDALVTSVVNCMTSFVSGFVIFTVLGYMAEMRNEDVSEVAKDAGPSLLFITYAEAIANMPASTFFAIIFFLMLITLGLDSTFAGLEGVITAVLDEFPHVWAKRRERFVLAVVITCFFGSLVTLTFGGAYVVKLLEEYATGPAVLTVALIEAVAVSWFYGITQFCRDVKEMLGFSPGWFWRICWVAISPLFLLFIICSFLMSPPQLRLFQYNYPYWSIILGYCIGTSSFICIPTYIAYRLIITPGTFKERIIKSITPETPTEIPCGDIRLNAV

For `c1ccc([C@H]2CCNCC[C@H]2c2ccccc2)cc1` [Compound 1, (4S,5R)-4,5-Diphenyl-azepane], the Ki was 9.33 nM in assay [1] and 124 nM in assay [2].
The matching figures for `COc1ccccc1[C@H]1CCNCC[C@H]1c1ccccc1` [Compound 2, (4S,5R)-4-(2-Methoxy-phenyl)-5-phenyl-azepane]: 3.98 nM and 30.9 nM.
As to `c1ccc([C@H]2CCCNC[C@@H]2c2ccccc2)cc1` [Compound 3, (3S,4S)-3,4-Diphenyl-azepane], the figures for the Ki in assay [1] and in assay [2] were 226 nM and 77.2 nM, respectively.
The matching figures for `c1ccc([C@H]2CCNCC[C@@H]2c2ccccc2)cc1` [Compound 4, (4S,5S)-4,5-Diphenyl-azepane]: 468 nM and 741 nM.
The like results for `c1ccc([C@H]2CNCCO[C@@H]2c2ccccc2)cc1` [Compound 5, (6S,7S)-6,7-Diphenyl-[1,4]oxazepane] were, in that order, 684 nM and 133 nM.
Consider `c1ccc([C@H]2CNCCO[C@H]2c2ccccc2)cc1` [Compound 6, (6S,7R)-6,7-Diphenyl-[1,4]oxazepane], for which the Ki in assay [2] was 417 nM.
`COc1ccccc1[C@@H]1OCCNC[C@@H]1c1ccccc1` [Compound 7, (6S,7R)-7-(2-Methoxy-phenyl)-6-phenyl-[1,4]oxazepane]: the Ki in assay [1] was 398 nM; in assay [2] it was 106 nM.
As for `COc1ccc([C@@H]2OCCNC[C@@H]2c2ccccc2)cc1` [Compound 8, (6S,7R)-7-(4-Methoxy-phenyl)-6-phenyl-[1,4]oxazepane], in assay [1], the Ki is 34.7 nM.
In the case of `Fc1ccccc1[C@@H]1OCCNC[C@@H]1c1ccccc1` [Compound 9, (6S,7R)-7-(2-Fluoro-phenyl)-6-phenyl-[1,4]oxazepane], the results for the Ki in assay [1] and in assay [2] were 398 nM and 275 nM, respectively.
The like results for `Fc1ccc([C@@H]2OCCNC[C@@H]2c2ccccc2)cc1` [Compound 10, (6S,7R)-7-(4-Fluoro-phenyl)-6-phenyl-[1,4]oxazepane] were, in that order, 234 nM and 432 nM.
The like results for `c1ccc(C2CNCCCN2c2ccccc2)cc1` (centres unmarked) [Compound 11, 1,2-Diphenyl-[1,4]diazepane] were, in that order, 785 nM and 282 nM.
The like results for `c1ccc(C2CCNCCN2c2ccccc2)cc1` (centres unmarked) [Compound 12, 1,7-Diphenyl-[1,4]diazepane] were, in that order, 407 nM and 335 nM.
Take `COc1ccc(C2CCNCCN2c2ccccc2)cc1` (centres unmarked) [Compound 13, 7-(4-Methoxy-phenyl)-1-phenyl-[1,4]diazepane]: the results for the Ki in assay [1] and in assay [2] were 105 nM and 676 nM, respectively.
For the compound `COc1ccc(C2CNCCCN2c2ccccc2)cc1` (centres unmarked) [Compound 14, 2-(4-Methoxy-phenyl)-1-phenyl-[1,4]diazepane], the Ki in assay [1] is 164 nM.
Take `Clc1ccc(C2CCNCCN2c2ccccc2)cc1` (centres unmarked) [Compound 15, 7-(4-Chloro-phenyl)-1-phenyl-[1,4]diazepane]: the Ki in assay [1] is 407 nM; in assay [2], 229 nM.
The like results for `Clc1ccc(C2CNCCCN2c2ccccc2)cc1` (centres unmarked) [Compound 16, 2-(4-Chloro-phenyl)-1-phenyl-[1,4]diazepane] were, in that order, 339 nM and 263 nM.
On to `COc1ccccc1C1CCNCCN1c1ccccc1` (centres unmarked) [Compound 17, 7-(2-Methoxy-phenyl)-1-phenyl-[1,4]diazepane], for which the Ki is 170 nM in assay [1] and 422 nM in assay [2].
The matching figures for `COc1ccccc1C1CNCCCN1c1ccccc1` (centres unmarked) [Compound 18, 2-(2-Methoxy-phenyl)-1-phenyl-[1,4]diazepane]: 1100 nM and 2040 nM.
Regarding `Clc1ccccc1C1CCNCCN1c1ccccc1` (centres unmarked) [Compound 19, 7-(2-Chloro-phenyl)-1-phenyl-[1,4]diazepane], the Ki in assay [1] is 73.3 nM; in assay [2], 219 nM.
As to `Clc1ccccc1C1CNCCCN1c1ccccc1` (centres unmarked) [Compound 20, 2-(2-Chloro-phenyl)-1-phenyl-[1,4]diazepane], in assay [1], the Ki is 394 nM.
With `Fc1ccc(C2CCNCCN2c2ccccc2)cc1` (centres unmarked) [Compound 23, 7-(4-Fluoro-phenyl)-1-phenyl-[1,4]diazepane], the Ki in assay [1] was 3630 nM.
With `Fc1ccc(C2CNCCCN2c2ccccc2)cc1` (centres unmarked) [Compound 24, 2-(4-Fluoro-phenyl)-1-phenyl-[1,4]diazepane], the Ki in assay [2] was 214 nM.
